Positions of bridges follow the written chain, without caps; N, C: chain ends. Non-standard residues stand in square brackets, D forms with d. Residues, ends and D or L forms follow the SMILES beside them. *: point of attachment. Trp(7-(3-AcNH-Ph)) = CC(=O)Nc1cccc(-c2cccc3c(C[C@H](N)C(=O)O)c[nH]c23)c1; Me3N+(CH2)2O(CH2)2O(CH2)2CO = C[N+](C)(C)CCOCCOCCC(=O)*; Trp(7-Me) = Cc1cccc2c(C[C@H](N)C(=O)O)c[nH]c12; dLys(Me3) = C[N+](C)(C)CCCC[C@@H](N)C(=O)O; 3Pal(5-Me) = Cc1cncc(C[C@H](N)C(=O)O)c1; 2Nal = N[C@@H](Cc1ccc2ccccc2c1)C(=O)O; AEF = NCCOc1ccc(C[C@H](N)C(=O)O)cc1; 3Pal = N[C@@H](Cc1cccnc1)C(=O)O; Ethyl(2-guanidino) = N=C(N)NCC*; Lys(Me) = CNCCCC[C@H](N)C(=O)O; Pen = CC(C)(S)[C@H](N)C(=O)O; Thp = NC1(C(=O)O)CCOCC1; PEG2 = NCCOCCOCCC(=O)O; X3 = C[N+](C)(C)CCCCC*; Sar = CNCC(=O)O; X58 = NCCCCC*
Assay: Exposed Polar Surface Area (EPSA)
Type: physicochemical
Details: SFC on Chirex 3014 column; sample 1 mM DMSO stock; read-out: EPSA
In short: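 SFC retention on a Chirex 3014 (S)-valine/(R)-1-(α-naphthyl)ethylamine column, 35 °C, CO2 with MeOH (20 mM ammonium formate) gradient 5–60% at 20%/min, 14 MPa outlet. Retention times converted to EPSA (Å^2) via linear calibration with 8 standards; samples from 1 mM DMSO stock, run in duplicate.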

Structure (SMILES)	EPSA
CC(=O)NCCCC[C@@H]1NC(=O)[C@H](Cc2c[nH]c3c(C)cccc23)NC(=O)[C@H]([C@@H](C)O)NC(=O)[C@H](CC(N)=O)NC(=O)[C@@H](NC(=O)[C@@H](CCCNC(=N)N)NC(=O)CCOCCOCC[N+](C)(C)C)C(C)(C)SSC(C)(C)[C@@H](C(=O)N[C@@H](Cc2ccc(OCCNC(=N)N)cc2)C(=O)N[C@@H](Cc2ccc3ccccc3c2)C(=O)NC2(C(=O)N[C@@H](CCC(=O)O)C(=O)N[C@@H](CC(N)=O)C(=O)N[C@@H](Cc3cncc(C)c3)C(=O)N(C)CC(N)=O)CCOCC2)NC1=O [compound 508, cPEG3aCO-r-Pen(3)-N-T-7MeW-K(Ac)-Pen(3)-AEF(G)-2Nal-THP-E-N-5MePyridinAla-Sar-CONH2] ({Me3N+(CH2)2O(CH2)2O(CH2)2CO}-[dR][Pen]NT[Trp(7-Me)]K(Ac)[Pen]Y(Ethyl(2-guanidino))[2Nal][Thp]EN[3Pal(5-Me)][Sar]-NH2; disulfide 2-7)	197 A^2
CC(=O)NCCCC[C@@H]1NC(=O)[C@H](Cc2c[nH]c3c(-c4cccc(NC(C)=O)c4)cccc23)NC(=O)[C@H]([C@@H](C)O)NC(=O)[C@H](CC(N)=O)NC(=O)[C@@H](NC(=O)[C@@H](CCCC[N+](C)(C)C)NC(C)=O)C(C)(C)SSC(C)(C)[C@@H](C(=O)N[C@@H](Cc2ccc(OCCCCC[N+](C)(C)C)cc2)C(=O)N[C@@H](Cc2ccc3ccccc3c2)C(=O)NC2(C(=O)N[C@@H](CCC(=O)O)C(=O)N[C@@H](CC(N)=O)C(=O)N[C@@H](Cc3cncc(C)c3)C(=O)N(C)CC(N)=O)CCOCC2)NC1=O [compound 513, MeCO-k(Me)3-Pen(3)-N-T-7(3NAcPh)W-K(Ac)-Pen(3)-TMAPF-2Nal-THP-E-N-5MePyridinAla-Sar-CONH2] (Ac-[dLys(Me3)][Pen]NT[Trp(7-(3-AcNH-Ph))]K(Ac)[Pen]Y(X3)[2Nal][Thp]EN[3Pal(5-Me)][Sar]-NH2; disulfide 2-7)	224 A^2
CC(=O)NCCCC[C@@H]1NC(=O)[C@H](Cc2c[nH]c3c(-c4cccc(NC(C)=O)c4)cccc23)NC(=O)[C@H]([C@@H](C)O)NC(=O)[C@H](CC(N)=O)NC(=O)[C@@H](NC(=O)[C@@H](CCCC[N+](C)(C)C)NC(C)=O)C(C)(C)SSC(C)(C)[C@@H](C(=O)N[C@@H](Cc2ccc(OCCN)cc2)C(=O)N[C@@H](Cc2ccc3ccccc3c2)C(=O)NC2(C(=O)N[C@@H](CCC(=O)O)C(=O)N[C@@H](CC(N)=O)C(=O)N[C@@H](Cc3cncc(C)c3)C(=O)N(C)CC(N)=O)CCOCC2)NC1=O [compound 535, MeCO-k(Me)3-Pen(3)-N-T-7(3NAcPh)W-K(Ac)-Pen(3)-AEF-2Nal-THP-E-N-5MePyridinAla-Sar-CONH2] (Ac-[dLys(Me3)][Pen]NT[Trp(7-(3-AcNH-Ph))]K(Ac)[Pen][AEF][2Nal][Thp]EN[3Pal(5-Me)][Sar]-NH2; disulfide 2-7)	190 A^2
CC(=O)NCCCC[C@@H]1NC(=O)[C@H](Cc2c[nH]c3c(-c4cccc(NC(C)=O)c4)cccc23)NC(=O)[C@H]([C@@H](C)O)NC(=O)[C@H](CC(N)=O)NC(=O)[C@@H](NC(=O)[C@@H](CCCNC(=N)N)NC(=O)CCOCCOCC[N+](C)(C)C)C(C)(C)SSC(C)(C)[C@@H](C(=O)N[C@@H](Cc2ccc(OCCN)cc2)C(=O)N[C@@H](Cc2ccc3ccccc3c2)C(=O)NC2(C(=O)N[C@@H](CCC(=O)O)C(=O)N[C@@H](CC(N)=O)C(=O)N[C@@H](Cc3cncc(C)c3)C(=O)N(C)CC(N)=O)CCOCC2)NC1=O [compound 536, cPEG3aCO-r-Pen(3)-N-T-7(3NAcPh)W-K(Ac)-Pen(3)-AEF-2Nal-THP-E-N-5MePyridinAla-Sar-CONH2] ({Me3N+(CH2)2O(CH2)2O(CH2)2CO}-[dR][Pen]NT[Trp(7-(3-AcNH-Ph))]K(Ac)[Pen][AEF][2Nal][Thp]EN[3Pal(5-Me)][Sar]-NH2; disulfide 2-7)	210 A^2
CC(=O)NCCCC[C@@H]1NC(=O)[C@H](Cc2c[nH]c3cccc(C)c23)NC(=O)[C@H]([C@@H](C)O)NC(=O)[C@H](CC(N)=O)NC(=O)[C@@H](NC(C)=O)C(C)(C)SSC(C)(C)[C@@H](C(=O)N[C@@H](Cc2ccc(OCCCCC[N+](C)(C)C)cc2)C(=O)N[C@@H](Cc2ccc3ccccc3c2)C(=O)NC2(C(=O)N[C@@H](CCCCNC(C)=O)C(=O)N[C@@H](CC(N)=O)C(=O)N[C@@H](Cc3cccnc3)C(=O)N(C)CC(N)=O)CCCC2)NC1=O [compound 537, MeCO-Pen(3)-N-T-7MeW-K(Ac)-Pen(3)-TMAPF-2Nal-Acpx-K(Ac)-N-3Pya-Sar-CONH2]	163 A^2
CC(=O)NCCCC[C@@H]1NC(=O)[C@H](Cc2c[nH]c3c(-c4cccc(NC(C)=O)c4)cccc23)NC(=O)[C@H]([C@@H](C)O)NC(=O)[C@H](CC(N)=O)NC(=O)[C@@H](NC(=O)[C@@H](CCCNC(=N)N)NC(C)=O)C(C)(C)SSC(C)(C)[C@@H](C(=O)N[C@@H](Cc2ccc(OCCCCC[N+](C)(C)C)cc2)C(=O)N[C@@H](Cc2ccc3ccccc3c2)C(=O)NC2(C(=O)N[C@@H](CCC(=O)O)C(=O)N[C@@H](CC(N)=O)C(=O)N[C@@H](Cc3cncc(C)c3)C(=O)N(C)CC(N)=O)CCOCC2)NC1=O [compound 540, MeCO-r-Pen(3)-N-T-7(3NAcPh)W-K(Ac)-Pen(3)-TMAPF-2Nal-THP-E-N-5MePyridinAla-Sar-CONH2] (Ac-[dR][Pen]NT[Trp(7-(3-AcNH-Ph))]K(Ac)[Pen]Y(X3)[2Nal][Thp]EN[3Pal(5-Me)][Sar]-NH2; disulfide 2-7)	183 A^2

Results, then the molecule that gave them:

EPSA	Structure (SMILES)
160 A^2	CC(=O)N(C)CCCC[C@@H]1NC(=O)[C@H](Cc2c[nH]c3c(C)cccc23)NC(=O)[C@H]([C@@H](C)O)NC(=O)[C@H](CC(C)C)NC(=O)[C@@H](NC(=O)CCOCCOCC[N+](C)(C)C)C(C)(C)SSC(C)(C)[C@@H](C(=O)N[C@@H](Cc2ccc(OCCCCC[N+](C)(C)C)cc2)C(=O)N[C@@H](Cc2ccc3ccccc3c2)C(=O)NC2(C(=O)N[C@@H](CCCCN(C)C(C)=O)C(=O)N[C@@H](CC(N)=O)C(=O)N[C@@H](Cc3cccnc3)C(=O)N(C)CC(=O)N(C)C)CCOCC2)NC1=O [compound 495, cPEG3aCO-Pen(3)-1-T-7MeW-K(NMeAc)-Pen(3)-TMAPF-2Nal-THP-K(NMeAc)-N-3Pya-Sar-CON(Me)2] ({Me3N+(CH2)2O(CH2)2O(CH2)2CO}-[Pen]LT[Trp(7-Me)][Lys(Me)](Ac)[Pen]Y(X3)[2Nal][Thp][Lys(Me)](Ac)N[3Pal][Sar]-NMe2; disulfide 1-6)
179 A^2	CC(=O)NCCCC[C@@H]1NC(=O)[C@H](Cc2c[nH]c3c(C)cccc23)NC(=O)[C@H]([C@@H](C)O)NC(=O)[C@H](CC(N)=O)NC(=O)[C@@H](NC(=O)CCOCCOCC[N+](C)(C)C)C(C)(C)SSC(C)(C)[C@@H](C(=O)N[C@@H](Cc2ccc(OCCCCC[N+](C)(C)C)cc2)C(=O)N[C@@H](Cc2ccc3ccccc3c2)C(=O)NC2(C(=O)N[C@@H](CCC(=O)O)C(=O)N[C@@H](CC(N)=O)C(=O)N[C@@H](Cc3cncc(C)c3)C(=O)N(C)CC(N)=O)CCOCC2)NC1=O [compound 505, cPEG3aCO-Pen(3)-N-T-7MeW-K(Ac)-Pen(3)-TMAPF-2Nal-THP-E-N-5MePyridinAla-Sar-CONH2]
248 A^2	CC(=O)NCCCC[C@@H]1NC(=O)[C@H](Cc2c[nH]c3c(C)cccc23)NC(=O)[C@H]([C@@H](C)O)NC(=O)[C@H](CC(N)=O)NC(=O)[C@@H](NC(=O)CCOCCOCC[N+](C)(C)C)C(C)(C)SSC(C)(C)[C@@H](C(=O)N[C@@H](Cc2ccc(OCCNC(=N)N)cc2)C(=O)N[C@@H](Cc2ccc3ccccc3c2)C(=O)NC2(C(=O)N[C@@H](CCC(=O)O)C(=O)N[C@@H](CC(N)=O)C(=O)N[C@@H](Cc3cncc(C)c3)C(=O)N(C)CC(N)=O)CCOCC2)NC1=O [compound 514, cPEG3aCO-Pen(3)-N-T-7MeW-K(Ac)-Pen(3)-AEF(G)-2Nal-THP-E-N-5MePyridinAla-Sar-CONH2]
161 A^2	CC(=O)N(C)CCCC[C@@H]1NC(=O)[C@H](Cc2c[nH]c3c(C)cccc23)NC(=O)[C@H]([C@@H](C)O)NC(=O)[C@H](CC(=O)N(C)C)NC(=O)[C@@H](NC(=O)CCOCCOCCN)C(C)(C)SSC(C)(C)[C@@H](C(=O)N[C@@H](Cc2ccc(OCCCCCN)cc2)C(=O)N[C@@H](Cc2ccc3ccccc3c2)C(=O)NC2(C(=O)N[C@@H](CCCCN(C)C(C)=O)C(=O)N[C@@H](CC(N)=O)C(=O)N[C@@H](Cc3cccnc3)C(=O)N(C)CC(=O)N(C)C)CCOCC2)NC1=O [compound 529, cPEG3AmCO-Pen(3)-N(N(Me)2)-T-7MeW-K(NMeAc)-Pen(3)-APF-2Nal-THP-K(NMeAc)-N-3Pya-Sar-CON(Me)2] (H-[PEG2][Pen]D(NMe2)T[Trp(7-Me)][Lys(Me)](Ac)[Pen]Y(X58)[2Nal][Thp][Lys(Me)](Ac)N[3Pal][Sar]-NMe2; disulfide 2-7)
180 A^2	CC(=O)NCCCC[C@@H]1NC(=O)[C@H](Cc2c[nH]c3c(C)cccc23)NC(=O)[C@H]([C@@H](C)O)NC(=O)[C@H](CC(N)=O)NC(=O)[C@@H](NC(=O)[C@@H](CCCNC(=N)N)NC(=O)CCOCCOCC[N+](C)(C)C)C(C)(C)SSC(C)(C)[C@@H](C(=O)N[C@@H](Cc2ccc(OCCCCC[N+](C)(C)C)cc2)C(=O)N[C@@H](Cc2ccc3ccccc3c2)C(=O)NC2(C(=O)N[C@@H](CCC(=O)O)C(=O)N[C@@H](CC(N)=O)C(=O)N[C@@H](Cc3cncc(C)c3)C(=O)N(C)CC(N)=O)CCOCC2)NC1=O [compound 542, cPEG3aCO-r-Pen(3)-N-T-7MeW-K(Ac)-Pen(3)-TMAPF-2Nal-THP-E-N-5MePyridinAla-Sar-CONH2] ({Me3N+(CH2)2O(CH2)2O(CH2)2CO}-[dR][Pen]NT[Trp(7-Me)]K(Ac)[Pen]Y(X3)[2Nal][Thp]EN[3Pal(5-Me)][Sar]-NH2; disulfide 2-7)
163 A^2	CC(=O)NCCCC[C@@H]1NC(=O)[C@H](Cc2c[nH]c3c(C)cccc23)NC(=O)[C@H]([C@@H](C)O)NC(=O)[C@H](CC(N)=O)NC(=O)[C@@H](NC(C)=O)C(C)(C)SSC(C)(C)[C@@H](C(=O)N[C@@H](Cc2ccc(OCC[N+](C)(C)C)cc2)C(=O)N[C@@H](Cc2ccc3ccccc3c2)C(=O)NC2(C(=O)N[C@@H](CCCCNC(C)=O)C(=O)N[C@@H](CC(N)=O)C(=O)N[C@@H](Cc3cccnc3)C(=O)N(C)CC(N)=O)CCOCC2)NC1=O [compound 561, MeCO-Pen(3)-N-T-7MeW-K(Ac)-pen(3)-AEF(NMe3)-2Nal-THP-K(Ac)-N-3Pya-Sar-CONH2]
